# Test results as given in ChEMBL document CHEMBL5053489, “Effects of Eugenol and Dehydrodieugenol B from Nectandra leucantha against Lipopolysaccharide (LPS)-Induced Experimental Acute Lung Inflammation” (J Nat Prod, 2021).
# The source made the active and inactive calls. The calls are words filed in the database; no cut-off is given here.
# What was measured:
# [1] = target: c-Jun N-terminal kinase (Mus musculus) (UniProt Q91Y86+Q9WTU6+Q61831); test: Inhibition of LPS-induced JNK phosphorylation in BALB/c mouse at 30 mg/kg administered 6 hrs after LPS stimulation by western blot analysis; assay type: organism-based
# Sequence of c-Jun N-terminal kinase (Mus musculus) (Q61831 whole entry, looked up): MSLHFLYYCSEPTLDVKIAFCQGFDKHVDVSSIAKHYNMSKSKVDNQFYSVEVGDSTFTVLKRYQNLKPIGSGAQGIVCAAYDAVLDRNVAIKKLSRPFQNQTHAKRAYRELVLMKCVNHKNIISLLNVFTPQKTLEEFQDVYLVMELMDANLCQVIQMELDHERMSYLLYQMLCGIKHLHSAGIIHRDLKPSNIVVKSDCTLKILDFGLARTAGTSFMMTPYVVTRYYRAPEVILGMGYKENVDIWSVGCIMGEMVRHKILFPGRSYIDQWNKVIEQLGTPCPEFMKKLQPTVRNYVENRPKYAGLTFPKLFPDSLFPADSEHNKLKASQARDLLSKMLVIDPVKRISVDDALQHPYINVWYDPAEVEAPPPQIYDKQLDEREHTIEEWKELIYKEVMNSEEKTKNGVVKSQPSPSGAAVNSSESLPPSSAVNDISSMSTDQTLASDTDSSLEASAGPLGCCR
# Sequence of c-Jun N-terminal kinase (Mus musculus) (Q91Y86 whole entry, looked up): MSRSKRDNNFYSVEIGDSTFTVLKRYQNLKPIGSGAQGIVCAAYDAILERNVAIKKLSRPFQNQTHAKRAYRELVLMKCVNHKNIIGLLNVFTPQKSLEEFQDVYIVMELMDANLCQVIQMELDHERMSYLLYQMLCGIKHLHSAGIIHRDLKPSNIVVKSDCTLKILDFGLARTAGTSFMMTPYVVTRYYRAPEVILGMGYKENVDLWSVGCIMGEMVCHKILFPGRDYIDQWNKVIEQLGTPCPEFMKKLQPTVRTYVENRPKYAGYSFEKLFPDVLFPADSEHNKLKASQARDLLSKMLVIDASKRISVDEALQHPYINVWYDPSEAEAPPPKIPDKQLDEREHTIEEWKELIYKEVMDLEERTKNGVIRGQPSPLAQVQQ
# Sequence of c-Jun N-terminal kinase (Mus musculus) (Q9WTU6 whole entry, looked up): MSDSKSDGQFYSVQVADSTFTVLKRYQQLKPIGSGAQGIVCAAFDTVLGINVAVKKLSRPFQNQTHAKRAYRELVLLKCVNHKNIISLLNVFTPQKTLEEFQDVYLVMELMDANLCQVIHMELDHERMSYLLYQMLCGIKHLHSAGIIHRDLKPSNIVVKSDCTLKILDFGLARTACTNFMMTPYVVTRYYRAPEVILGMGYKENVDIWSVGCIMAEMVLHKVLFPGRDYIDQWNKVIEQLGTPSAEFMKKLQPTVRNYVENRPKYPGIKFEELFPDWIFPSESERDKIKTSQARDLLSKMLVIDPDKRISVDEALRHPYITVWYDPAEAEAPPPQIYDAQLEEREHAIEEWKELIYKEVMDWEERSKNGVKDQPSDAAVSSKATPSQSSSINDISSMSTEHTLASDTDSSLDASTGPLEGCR
# [2] = tested on: Mus musculus; test: (§1) Antiinflammatory activity in BALB/c mouse model of LPS-induced acute respiratory distress syndrome assessed as reduction in collagen deposition in lung parenchyma at 30 mg/kg administered 6 hrs after LPS-stimulation and measured after 24 hrs by pointing-count technique based immunohistochemistry analysis; assay type: functional, organism-based
# [3] = tested on: Mus musculus; test: Antiinflammatory activity in BALB/c mouse model of LPS-induced acute respiratory distress syndrome assessed as reduction in IL-6 level in BALF at 30 mg/kg administered 6 hrs after LPS-stimulation by ELISA; assay type: functional, organism-based
# [4] = tested on: Mus musculus; test: Antiinflammatory activity in BALB/c mouse model of LPS-induced acute respiratory distress syndrome assessed as reduction in inflammatory cells in alveolar septa at 30 mg/kg administered 6 hrs after LPS-stimulation; assay type: functional, organism-based
# [5] = tested on: Mus musculus; test: Antiinflammatory activity in BALB/c mouse model of LPS-induced acute respiratory distress syndrome assessed as reduction in density of TIMP-1 positive cells in lung parenchyma at 30 mg/kg administered 6 hrs after LPS-stimulation by pointing-count technique based immunohistochemistry analysis; assay type: functional, organism-based
# [6] = tested on: Mus musculus; test: Antiinflammatory activity in BALB/c mouse model of LPS-induced acute respiratory distress syndrome assessed as reduction in pulmonary edema by measuring wet/dry weight ratio at 30 mg/kg administered 6 hrs after LPS-stimulation and measured after […]; assay type: functional, organism-based
# [7] = tested on: Mus musculus; test: Antiinflammatory activity in BALB/c mouse model of LPS-induced acute respiratory distress syndrome assessed as reduction in total inflammatory cells in BALF at 30 mg/kg administered 6 hrs after LPS-stimulation by Diff-quick stain based analysis; assay type: functional, organism-based
# [8] = tested on: Mus musculus; test: Antiinflammatory activity in BALB/c mouse model of LPS-induced acute respiratory distress syndrome assessed as improvement in lung mechanics by measuring tissue elastance at 30 mg/kg administered 6 hrs after LPS-stimulation and measured after 24 hrs by forced oscillation technique; assay type: functional, organism-based
# [9] = tested on: Mus musculus; test: as §1, with “9-iso-PGF2alpha expression” for “collagen deposition”, “alveolar septa” for “lung parenchyma”; assay type: functional, organism-based
# [10] = tested on: Mus musculus; test: Toxicity in BALB/c mouse model of LPS-induced acute respiratory distress syndrome assessed as reduction in body mass loss percentage at 30 mg/kg administered 6 hrs after LPS-stimulation; assay type: organism-based; conditions: in vivo
# [11] = tested on: Mus musculus; test: Antiinflammatory activity in BALB/c mouse model of LPS-induced acute respiratory distress syndrome assessed as reduction in macrophages in BALF at 30 mg/kg administered 6 hrs after LPS-stimulation by Diff-quick stain based analysis; assay type: functional, organism-based
# [12] = tested on: Mus musculus; test: Antiinflammatory activity in BALB/c mouse model of LPS-induced acute respiratory distress syndrome assessed as reduction in lymphocytes in peripheral blood at 30 mg/kg administered 6 hrs after LPS-stimulation and measured after 24 hrs by Diff-quick stain based analysis; assay type: functional, organism-based
# [13] = tested on: Mus musculus; test: Antiinflammatory activity in BALB/c mouse model of LPS-induced acute respiratory distress syndrome assessed as reduction in neutrophils in BALF at 20 to 60 mg/kg administered 6 hrs after LPS-stimulation; assay type: functional, organism-based; conditions: dose 20-60 mg/kg
# [14] = tested on: Mus musculus; test: Antiinflammatory activity in BALB/c mouse model of LPS-induced acute respiratory distress syndrome assessed as reduction in neutrophils in BALF at 30 mg/kg administered 6 hrs after LPS-stimulation by Diff-quick stain based analysis; assay type: functional, organism-based
# [15] = tested on: Mus musculus; test: Antiinflammatory activity in BALB/c mouse model of LPS-induced acute respiratory distress syndrome assessed as reduction in TNF-alpha level in BALF at 30 mg/kg administered 6 hrs after LPS-stimulation by ELISA; assay type: functional, organism-based
# [16] = tested on: Mus musculus; test: Antiinflammatory activity in BALB/c mouse model of LPS-induced acute respiratory distress syndrome assessed as reduction in iNOS expression in alveolar septa at 30 mg/kg administered 6 hrs after LPS-stimulation and measured after 24 hrs by pointing-count technique based immunohistochemistry analysis; assay type: functional, organism-based
# [17] = tested on: Mus musculus; test: Antiinflammatory activity in BALB/c mouse model of LPS-induced acute respiratory distress syndrome assessed as reduction in neutrophils in peripheral blood at 30 mg/kg administered 6 hrs after LPS-stimulation and measured after 24 hrs by Diff-quick stain based analysis; assay type: functional, organism-based
# [18] = tested on: Mus musculus; test: Antiinflammatory activity in BALB/c mouse model of LPS-induced acute respiratory distress syndrome assessed as reduction in leukocytes in peripheral blood at 30 mg/kg administered 6 hrs after LPS-stimulation and measured after 24 hrs by Neubauer counting chamber based analysis; assay type: functional, organism-based
# [19] = tested on: Mus musculus; test: Antiinflammatory activity in BALB/c mouse model of LPS-induced acute respiratory distress syndrome assessed as improvement in lung mechanics by measuring tissue damping at 30 mg/kg administered 6 hrs after LPS-stimulation and measured after 24 hrs by forced oscillation technique; assay type: functional, organism-based
# [20] = tested on: Mus musculus; test: Antiinflammatory activity in BALB/c mouse model of LPS-induced acute respiratory distress syndrome assessed as improvement in lung mechanics by measuring respiratory system resistance at 30 mg/kg administered 6 hrs after LPS-stimulation and measured after 24 hrs by forced oscillation technique; assay type: functional, organism-based
# [21] = tested on: Mus musculus; test: Antiinflammatory activity in BALB/c mouse model of LPS-induced acute respiratory distress syndrome assessed as reduction in density of MMP-9 positive cells in lung parenchyma at 30 mg/kg administered 6 hrs after LPS-stimulation by pointing-count technique based immunohistochemistry analysis; assay type: functional, organism-based
# [22] = tested on: Mus musculus; test: Antiinflammatory activity in BALB/c mouse model of LPS-induced acute respiratory distress syndrome assessed as reduction in IL-1beta level in BALF at 30 mg/kg administered 6 hrs after LPS-stimulation by ELISA; assay type: functional, organism-based
# [23] = tested on: Mus musculus; test: Antiinflammatory activity in BALB/c mouse model of LPS-induced acute respiratory distress syndrome assessed as improvement in lung mechanics by measuring respiratory system elastance at 30 mg/kg administered 6 hrs after LPS-stimulation and measured after 24 hrs by forced oscillation technique; assay type: functional, organism-based
# [24] = tested on: Mus musculus; test: Antiinflammatory activity in BALB/c mouse model of LPS-induced acute respiratory distress syndrome assessed as reduction in monocytes in peripheral blood at 30 mg/kg administered 6 hrs after LPS-stimulation and measured after 24 hrs by Diff-quick stain based analysis; assay type: functional, organism-based
# [25] = tested on: Mus musculus; test: Antiinflammatory activity in BALB/c mouse model of LPS-induced acute respiratory distress syndrome assessed as reduction in polymorphonuclear cells in alveolar septa at 30 mg/kg administered 6 hrs after LPS-stimulation by pointing-count technique; assay type: functional, organism-based
structure (smiles),measurement,setting,value
C=CCc1ccc(Oc2cc(CC=C)cc(OC)c2O)c(OC)c1,inhibition,[1],Active
C=CCc1ccc(O)c(OC)c1 [EUGENOL],Activity,[2],Active
same,Activity,[3],Active
same,Activity,[4],Active
same,Activity,[5],Active
same,Activity,[6],Active
same,Activity,[7],Active
same,Activity,[8],Active
same,Activity,[9],Active
same,Activity,[10],Non-Toxic
same,Activity,[11],Active
same,Activity,[12],Active
same,Activity,[13],Active
same,Activity,[14],Active
same,Activity,[15],inactive
same,Activity,[16],Active
same,Activity,[17],Active
same,Activity,[18],Active
same,Activity,[19],Active
same,Activity,[20],inactive
same,Activity,[21],Active
same,Activity,[22],Active
same,Activity,[23],Active
same,Activity,[24],Active
same,Activity,[25],Active
same,inhibition,[1],Active
